Experimental data published in paper PMC3183312 (European journal of medicinal chemistry, 2011).

Test system: HIV-1NL4-3
Assay: HIV-1 infectivity assay, single cycle infection, Luc reporter in TZM-bl cells
Assay type: cell-based
Conditions: HIV-1NL4-3 in TZM-bl cells, discussion of Table 2

SMILES | anti-HIV activity (in words)
CCc1cc(=O)c2ccc(OCc3cccc(C(F)(F)F)c3)c(COC(=O)[C@@]34CCC(C)(C(=O)O3)C4(C)C)c2o1 [Compound 20, 4′-((−)-Camphanoyloxymethyl)-2-ethyl-7-(3-(trifluoromethyl)benzyloxy)-4H-chromen-4-one] | lost all activity
CCc1cc(=O)c2ccc(OCc3cc(OC)cc(OC)c3)c(COC(=O)C34CCC(C)(C(=O)O3)C4(C)C)c2o1 (stereo not drawn) [Compound 25, 4′-((−)-Camphanoyloxymethyl)-7-(3,5-dimethoxybenzyloxy)-2-ethyl-4H-chromen-4-one] | very weak anti-HIV activity
CCc1cc(=O)c2ccc(OC3CCOC3=O)c(COC(=O)[C@@]34CCC(C)(C(=O)O3)C4(C)C)c2o1 (stereo partly drawn) [Compound 16, 4′-((−)-Camphanoyloxymethyl)-2-ethyl-7-(2-oxo-tetrahydrofuran-3-yloxy)-4H-chromen-4-one] | lost all activity
CCc1cc(=O)c2ccc(OCc3cc(OC)c(OC)cc3[N+](=O)[O-])c(COC(=O)[C@@]34CCC(C)(C(=O)O3)C4(C)C)c2o1 [Compound 28, 4′-((−)-Camphanoyloxymethyl)-7-(4,5-dimethoxy-2-nitrobenzyloxy)-2-ethyl-4H-chromen-4-one] | lost all activity

Test system: not listed separately
Assay: Chemical stability analysis in acidic conditions with HPLC monitoring
Assay type: physicochemical
Conditions: 1% HCl/MeOH/rt; peak area percentage by HPLC; preliminary

SMILES | Purity (area %) Reaction Time = 1 min [%]
CCc1cc(=O)c2ccc(OC(C)C)c(COC(=O)C34CCC(C)(C(=O)O3)C4(C)C)c2o1 (stereo not drawn) [Compound 12, 4′-((−)-Camphanoyloxymethyl)-2-ethyl-7-isopropoxy-4H-chromen-4-one] | 100
CCc1cc(=O)c2ccc3c(c2o1)[C@@H](OC(=O)C12CCC(C)(C(=O)O1)C2(C)C)[C@@H](OC(=O)C12CCC(C)(C(=O)O1)C2(C)C)C(C)(C)O3 (stereo partly drawn) [Compound 4, 2-ethyl DCP] | 100
Cc1cc(=O)oc2c3c(ccc12)OC(C)(C)[C@H](OC(=O)[C@@]12CC[C@@](C)(C(=O)O1)C2(C)C)[C@@H]3OC(=O)[C@@]12CC[C@@](C)(C(=O)O1)C2(C)C [Compound 2, 4-methyl-DCK] | 100
Cc1cc(=O)oc2c(COC(=O)[C@@]34CC[C@@](C)(C(=O)O3)C4(C)C)c(SC(C)C)ccc12 [Compound 32, 4′-((−)-Camphanoyloxymethyl)-7-(isopropylthio)-4-methyl-2H-chromen-2-one] | 100
Cc1cc(=O)oc2c(COC(=O)[C@@]34CC[C@@](C)(C(=O)O3)C4(C)C)c(OC(C)C)ccc12 [Compound 7] | 100
